The values that follow come from US9096536B2, “Asymmetrically substituted anthrapyridazone derivatives as cytostatics” (BS-154 S.P. ZO.O., priority 2011, dated 2015).

Experiment [1] has as its system human prostate cancer cell line PC3. As to the kind of experiment: Cytostatic activity in vitro, prostate cancer PC3. Format: cell-based. The conditions noted are these: 72 h continuous exposure. An excerpt:
(§1) Table 5 presents activity in vitro of anthrapiridazone derivatives towards three cell lines of prostate cancer, naturally multidrug resistant, in comparison with references doxorubicin, mitoxantrone and taxol.

In experiment [2] the test system is CT-DNA. As to the kind of experiment: Interaction with isolated CT-DNA, fluorescence competition with ethidium bromide. The conditions noted are these: for IC50: 50% decrease in fluorescence intensity of DNA-bromide ethydine complex; for Kapp relative constant of DNA-compound bonding: Kapp = (1.26/C50) × KEtBr, KEtBr = 10^7M. The class given is binding. An excerpt: It could be supposed that this property explains cytostatic activity of compounds. In Table 9 there are presented quantitative data on the affinity to DNA of tested compounds using the fluorescence method and competitive affinity to DNA of bromine ethydine and tested compounds.

For experiment [3], the system named is human prostate cancer cell line DU145. The experiment can be described thus: Cytostatic activity in vitro, prostate cancer DU145. The conditions noted are these: 72 h continuous exposure. Format: cell-based.
Source text: as §1

Experiment [4] deals with human promyelocytic leukemia cell line HL-60. As to the kind of experiment: Cytostatic activity in vitro, HL-60 sensitive line. The conditions noted are these: 50% inhibition of cell growth after 72 h continuous exposure; read-out: HL60 IC50. Format: cell-based.
The test system of experiment [5] is human prostate cancer cell line LNCaP. As to the kind of experiment: Cytostatic activity in vitro, prostate cancer LNCaP. Format: cell-based. The conditions noted are these: 72 h continuous exposure.
Source text: as §1

Experiment [6] relates to HL60/VINC. As to the kind of experiment: Cytostatic activity in vitro, vincristine-induced resistant subline (MDR-1). Format: cell-based, human. The conditions noted are these: for IC50: 72 h continuous exposure; for RI resistance index HL60/VINC: IC50(resistant cells)/IC50(sensitive cells), HL60/VINC vs HL60, 72 h.
The subject of experiment [7] is HL60/DX. As to the kind of experiment: Cytostatic activity in vitro, doxorubicin-induced resistant subline (MRP). The class given is cell-based, human. The conditions noted are these: for IC50: 72 h continuous exposure; for RI resistance index HL60/DX: IC50(resistant cells)/IC50(sensitive cells), HL60/DX vs HL60, 72 h.

With `CCCCNCCNc1ccc2c(=O)[nH]nc3c2c1C(=O)c1ccccc1-3` [PDZ-9, 6-(2-Butylaminoethylamino)-2,7-dihydro-3H-dibenzo[de,h]cynnoline-3,7-dione], the half-inhibitory concentration (IC50) was determined as 1250 ± 206 nM in experiment [1]; 2100 ± 100 nM in experiment [2]; 558 ± 129 nM in experiment [3]; 311 ± 54 nM in experiment [4]; 427 ± 80 nM in experiment [5]; 574 ± 12 nM in experiment [6]. The IC50 in experiment [7] was 1180 ± 94 nM. Also, in experiment [2], the Kapp relative constant of DNA-compound bonding came to 6e+06 M⁻¹. The “RI resistance index HL60/VINC” value in experiment [6] is listed as 1.8. Moreover, in experiment [7], the “RI resistance index HL60/DX” value is recorded as 3.8.

As for `CCN(CC)CCNc1ccc2c(=O)[nH]nc3c2c1C(=O)c1ccccc1-3` [PDZ-18, 6-(2-Diethylaminoethyloamino)-2,7-dihydro-3H-dibenzo[de,h]cynnoline-3,7-dione], the IC50 in experiment [1] was 974 ± 159 nM; in experiment [2], 1960 ± 120 nM; in experiment [3] it was 418 ± 58 nM; in experiment [4], 115 ± 3 nM; in experiment [5] it was 465 ± 121 nM; in experiment [6] it was 597 ± 16 nM. In addition, 3500 ± 752 nM corresponded to half-maximal inhibition in experiment [7] (IC50). This compound displayed a Kapp relative constant of DNA-compound bonding in experiment [2] of 6.4e+06 M⁻¹. The “RI resistance index HL60/VINC” value in experiment [6] came to 5.2. Besides, the “RI resistance index HL60/DX” value in experiment [7] came to 30.4.

On to `CN(C)CCn1nc2c3c(c(NCCCN)ccc3c1=O)C(=O)c1ccccc1-2` [PDZ-20, 2-[2-(Dimethylamino)ethyl]-6-[(3-aminopropyl)amino]-2,7-dihydro-3H-dibenzo [de,h]cynnoline-3,7-dione], for which the IC50 in experiment [1] is 245 ± 36 nM; in experiment [2], 220 ± 60 nM; in experiment [3], 47.3 ± 11.5 nM; in experiment [4] it was 8.6 ± 0.9 nM; in experiment [5], 31.4 ± 4.6 nM; in experiment [6], 82.2 ± 6.1 nM. This compound also displayed a half-maximal inhibitory concentration (IC50) in experiment [7] of 2600 ± 436 nM. Besides, the Kapp relative constant of DNA-compound bonding in experiment [2] stood at 5.79e+07 M⁻¹. The “RI resistance index HL60/VINC” value in experiment [6] came out at 9.6. Further, in experiment [7], the “RI resistance index HL60/DX” value is 302.2.

On to `Nc1ccc2c(=O)n(CCN3CCCCC3)nc3c2c1C(=O)c1ccccc1-3` [PDZ-5, 2-[2-(Piperidinamino)ethyl]-6-amino-2,7-dihydro-3H-dibenzo[de,h]-cynnoline-3,7-dione], for which the half-maximal inhibitory concentration (IC50) in experiment [1] was 886 ± 170 nM; in experiment [2], 1690 ± 100 nM; in experiment [3], 538 ± 45 nM; in experiment [4], 382 ± 56 nM; in experiment [5] it was 474 ± 76 nM; in experiment [6] it was 677 ± 29 nM. In experiment [7], this compound showed an IC50 of 1360 ± 135 nM. In experiment [2], this compound yielded a Kapp relative constant of DNA-compound bonding of 7.5e+06 M⁻¹. Besides, in experiment [6], the “RI resistance index HL60/VINC” value is 1.8. For the same compound, the “RI resistance index HL60/DX” value in experiment [7] is listed as 3.6.
